According to ChEMBL document CHEMBL5579802, “Identification of 3,4-dihydropyrimido[4,5-d]pyrimidin-2(1H)-one scaffolds as potent Lck inhibitors as anti-cancer agents” (Bioorg Med Chem Lett, 2024):

What was measured:
COLO 201 [1] = assay: Induction of apoptosis in human COLO201 cells assessed as viable cells at 1 uM by Annexin V-FITC and PI staining based flow cytometry analysis (reference value: 90%); type: functional; conditions: read-out: Activity
COLO 201 [2] = assay: Induction of apoptosis in human COLO201 cells assessed as early apoptotic cells at 0.2 uM by Annexin V-FITC and PI staining based flow cytometry analysis (reference value: 3.2%); type: functional
COLO 201 [3] = assay: Induction of apoptosis in human COLO201 cells assessed as early apoptotic cells at 10 uM by Annexin V-FITC and PI staining based flow cytometry analysis (reference value: 3.2%); type: functional
COLO 201 [4] = assay: Induction of apoptosis in human COLO201 cells assessed as necrotic cells at 10 uM by Annexin V-FITC and PI staining based flow cytometry analysis (reference value: 0.7%); type: functional
COLO 201 [5] = assay: Induction of apoptosis in human COLO201 cells assessed as necrotic cells at 2 uM by Annexin V-FITC and PI staining based flow cytometry analysis (reference value: 0.7%); type: functional
[6] = molecular target: T1, Tyrosine-protein kinase Lck (Homo sapiens, UniProt P06239); assay: Inhibition of LCK (unknown origin)
COLO 201 [7] = assay: Induction of apoptosis in human COLO201 cells assessed as late apoptotic cells at 1 uM by Annexin V-FITC and PI staining based flow cytometry analysis (reference value: 6.2%); type: functional
COLO 201 [8] = assay: Induction of apoptosis in human COLO201 cells assessed as late apoptotic cells at 2 uM by Annexin V-FITC and PI staining based flow cytometry analysis (reference value: 6.2%); type: functional
COLO 201 [9] = assay: Induction of apoptosis in human COLO201 cells assessed as early apoptotic cells at 2 uM by Annexin V-FITC and PI staining based flow cytometry analysis (reference value: 3.2%); type: functional
[10] = molecular target: T1, Tyrosine-protein kinase Lck; assay: Inhibition of recombinant human LCK (64 to 509 residues) incubated for 60 mins in presence of ATP by HTRF method
COLO 201 [11] = assay: Induction of apoptosis in human COLO201 cells assessed as late apoptotic cells at 10 uM by Annexin V-FITC and PI staining based flow cytometry analysis (reference value: 6.2%); type: functional
COLO 201 [12] = assay: Induction of apoptosis in human COLO201 cells assessed as viable cells at 0.2 uM by Annexin V-FITC and PI staining based flow cytometry analysis ( Rvb = 90%); type: functional; conditions: read-out: Activity
COLO 201 [13] = assay: Induction of apoptosis in human COLO201 cells assessed as early apoptotic cells at 1 uM by Annexin V-FITC and PI staining based flow cytometry analysis (reference value: 3.2%); type: functional
COLO 201 [14] = assay: Induction of apoptosis in human COLO201 cells assessed as late apoptotic cells at 0.2 uM by Annexin V-FITC and PI staining based flow cytometry analysis (reference value: 6.2%); type: functional
COLO 201 [15] = assay: Induction of apoptosis in human COLO201 cells assessed as viable cells at 10 uM by Annexin V-FITC and PI staining based flow cytometry analysis (reference value: 90%); type: functional; conditions: read-out: Activity
COLO 201 [16] = assay: Induction of apoptosis in human COLO201 cells assessed as viable cells at 2 uM by Annexin V-FITC and PI staining based flow cytometry analysis (reference value: 90%); type: functional; conditions: read-out: Activity
COLO 201 [17] = assay: Induction of apoptosis in human COLO201 cells assessed as necrotic cells at 0.2 uM by Annexin V-FITC and PI staining based flow cytometry analysis (reference value: 0.7%); type: functional
COLO 201 [18] = assay: Induction of apoptosis in human COLO201 cells assessed as necrotic cells at 1 uM by Annexin V-FITC and PI staining based flow cytometry analysis (reference value: 0.7%); type: functional
HCT-15 = assay: Antiproliferative activity against human HCT-15 cells; type: functional
Hs-578T = assay: Antiproliferative activity against human Hs-578T cells; type: functional
EKVX = assay: Antiproliferative activity against human EKVX cells; type: functional
COLO 201 [19] = assay: Induction of apoptosis in human COLO201 cells assessed as increase in cleaved PARP level by Western blotting analysis; type: functional, cell-based; conditions: dose 1-10 µM
COLO 205 = assay: Antiproliferative activity against human COLO 205 cells; type: functional
M14 = assay: Antiproliferative activity against human M14 cells; type: functional
MDA-MB-468 = assay: Antiproliferative activity against human MDA-MB-468 cells; type: functional
HCT-116 = assay: Antiproliferative activity against human HCT-116 cells; type: functional
Malme-3M = assay: Antiproliferative activity against human Malme-3M cells; type: functional
CAKI-1 = assay: Antiproliferative activity against human CAKI-1 cells; type: functional
TK-10 = assay: Antiproliferative activity against human TK-10 cells; type: functional
SK-OV-3 = assay: Antiproliferative activity against human SK-OV-3 cells; type: functional
NCI-H226 = assay: Antiproliferative activity against human NCI-H226 cells; type: functional
UO-31 = assay: Antiproliferative activity against human UO-31 cells; type: functional
COLO 201 [20] = assay: Antiproliferative activity against human COLO201 cells; type: functional
NCI-H522 = assay: Antiproliferative activity against human NCI-H522 cells; type: functional
A549 = assay: Antiproliferative activity against human A549 cells; type: functional
UACC-257 = assay: Antiproliferative activity against human UACC-257 cells; type: functional
RXF 393 = assay: Antiproliferative activity against human RXF 393 cells; type: functional
IGROV-1 = assay: Antiproliferative activity against human IGROV-1 cells; type: functional
LOX IMVI = assay: Antiproliferative activity against human LOX IMVI cells; type: functional
KM12 = assay: Antiproliferative activity against human KM12 cells; type: functional
OVCAR-5 = assay: Antiproliferative activity against human OVCAR-5 cells; type: functional
MDA-MB-435 = assay: Antiproliferative activity against human MDA-MB-435 cells; type: functional
NCI/ADR-RES = assay: Antiproliferative activity against human NCI/ADR-RES cells; type: functional
U-251 = assay: Antiproliferative activity against human U-251 cells; type: functional
DU-145 = assay: Antiproliferative activity against human DU-145 cells; type: functional
HOP-62 = assay: Antiproliferative activity against human HOP-62 cells; type: functional
HOP-92 = assay: Antiproliferative activity against human HOP-92 cells; type: functional
OVCAR-8 = assay: Antiproliferative activity against human OVCAR-8 cells; type: functional
HCC 2998 = assay: Antiproliferative activity against human HCC 2998 cells; type: functional
NCI-H23 = assay: Antiproliferative activity against human NCI-H23 cells; type: functional
SNB-19 = assay: Antiproliferative activity against human SNB-19 cells; type: functional
ACHN = assay: Antiproliferative activity against human ACHN cells; type: functional
SK-MEL-2 = assay: Antiproliferative activity against human SK-MEL-2 cells; type: functional
SNB-75 = assay: Antiproliferative activity against human SNB-75 cells; type: functional
786-0 = assay: Antiproliferative activity against human 786-0 cells; type: functional
K562 = assay: Antiproliferative activity against human K562 cells; type: functional
HT-29 = assay: Antiproliferative activity against human HT-29 cells; type: functional
SW-620 = assay: Antiproliferative activity against human SW620 cells; type: functional
[21] = Antiproliferative activity against human […] cells; type: functional
SK-MEL-28 = assay: Antiproliferative activity against human SK-MEL-28 cells; type: functional
A498 = assay: Antiproliferative activity against human A498 cells; type: functional
PC-3 = assay: Antiproliferative activity against human PC-3 cells; type: functional
HL-60(TB) = assay: Antiproliferative activity against human HL-60(TB) cells; type: functional
SN12C = assay: Antiproliferative activity against human SN12C cells; type: functional
SF-268 = assay: Antiproliferative activity against human SF-268 cells; type: functional
SR = assay: Antiproliferative activity against human SR cells; type: functional
MOLT-4 = assay: Antiproliferative activity against human MOLT-4 cells; type: functional
MCF7 = assay: Antiproliferative activity against human MCF7 cells; type: functional
BT-549 = assay: Antiproliferative activity against human BT-549 cells; type: functional
MDA-MB-231 = assay: Antiproliferative activity against human MDA-MB-231 cells; type: functional
OVCAR-3 = assay: Antiproliferative activity against human OVCAR-3 cells; type: functional
NCI-H460 = assay: Antiproliferative activity against human NCI-H460 cells; type: functional
T47D = assay: Antiproliferative activity against human T47D cells; type: functional

T1 sequence (P06239 whole entry): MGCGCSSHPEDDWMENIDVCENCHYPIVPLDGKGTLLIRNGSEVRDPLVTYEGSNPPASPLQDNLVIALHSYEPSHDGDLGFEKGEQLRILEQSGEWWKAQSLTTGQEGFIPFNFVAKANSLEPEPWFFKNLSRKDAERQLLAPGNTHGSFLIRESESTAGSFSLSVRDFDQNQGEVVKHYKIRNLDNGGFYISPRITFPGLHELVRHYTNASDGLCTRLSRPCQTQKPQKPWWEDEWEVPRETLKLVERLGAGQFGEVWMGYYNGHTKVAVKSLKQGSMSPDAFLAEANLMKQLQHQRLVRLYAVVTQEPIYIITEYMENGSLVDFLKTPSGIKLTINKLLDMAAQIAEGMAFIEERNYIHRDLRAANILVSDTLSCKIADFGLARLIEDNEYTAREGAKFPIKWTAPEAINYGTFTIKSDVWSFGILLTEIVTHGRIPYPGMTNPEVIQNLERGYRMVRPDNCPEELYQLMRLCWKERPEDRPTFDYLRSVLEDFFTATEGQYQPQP

With COc1cc(-c2nn(C3CCC(N4CCN(C(C)=O)CC4)CC3)c3ncnc(N)c23)ccc1NC(=O)c1cc2ccccc2n1C (stereo unspecified) the viability at 1 µM (COLO 201 [1]) was 88.7%, the Activity (COLO 201 [2]) was 2.5% and the Activity (COLO 201 [3]) was 16.9%. For the same compound, the Activity (COLO 201 [4]) was 3.8%, the Activity (COLO 201 [5]) was 1.8% and the IC50 [6] was 147 nM. For the same compound, the Activity (COLO 201 [7]) was 6.6%, the Activity (COLO 201 [8]) was 8.5% and the Activity (COLO 201 [9]) was 7.1%. For the same compound, the IC50 [10] was 147 nM, the Activity (COLO 201 [11]) was 52.7% and the viability at 0.2 µM (COLO 201 [12]) was 92.6%. It also gave an Activity (COLO 201 [13]) of 3.4%, an Activity (COLO 201 [14]) of 4.3% and a viability at 10 µM (COLO 201 [15]) of 26.6%. The viability at 2 µM (COLO 201 [16]) was 82.6%, the Activity (COLO 201 [17]) was 0.6% and the Activity (COLO 201 [18]) was 1.2%.

Cc1ccc(Nc2ncc3c(n2)N(C)C(=O)N(c2cc(NC(=O)c4ccc([N+](=O)[O-])c(OCC(C)C)c4)ccc2C)C3)cn1 showed a viability at 1 µM (COLO 201 [1]) of 61.3%, a GI50 (HCT-15) of 410 nM and an Activity (COLO 201 [2]) of 5.6%. For the same compound, the GI50 (Hs-578T) was 280 nM, the Activity (COLO 201 [3]) was 13.3% and the Activity (COLO 201 [4]) was 7.4%. The Activity (COLO 201 [5]) was 5.2%, the GI50 (EKVX) was 980 nM and the Activity (COLO 201 [19]) was “Dose-Dependent Effect”. It also gave a GI50 (COLO 205) of 240 nM, a GI50 (M14) of 160 nM and a GI50 (MDA-MB-468) of 380 nM. The GI50 (HCT-116) was 330 nM, the GI50 (Malme-3M) was 200 nM and the GI50 (CAKI-1) was 60 nM. It also gave a GI50 (TK-10) of 390 nM, a GI50 (SK-OV-3) of 190 nM and a GI50 (NCI-H226) of 410 nM. It also gave a GI50 (UO-31) of 270 nM, a GI50 (COLO 201 [20]) of 1260 nM and a GI50 (NCI-H522) of 300 nM. The GI50 (A549) was 430 nM, the GI50 (UACC-257) was 670 nM and the GI50 (RXF 393) was 94 nM. For the same compound, the GI50 (IGROV-1) was 210 nM, the GI50 (LOX IMVI) was 200 nM and the GI50 (KM12) was 740 nM. The GI50 (OVCAR-5) was 540 nM, the GI50 (MDA-MB-435) was 250 nM and the GI50 (NCI/ADR-RES) was 3530 nM. The Activity (COLO 201 [9]) was 17%, the GI50 (U-251) was 550 nM and the GI50 (DU-145) was 400 nM. It also gave a GI50 (HOP-62) of 1130 nM, a GI50 (HOP-92) of 90 nM and a GI50 (OVCAR-8) of 410 nM. For the same compound, the viability at 0.2 µM (COLO 201 [12]) was 80.9%, the Activity (COLO 201 [13]) was 13.9% and the GI50 (HCC 2998) was 1100 nM. The GI50 (NCI-H23) was 499 nM, the GI50 (SNB-19) was 3920 nM and the Activity (COLO 201 [14]) was 11.7%. The GI50 (ACHN) was 150 nM, the viability at 10 µM (COLO 201 [15]) was 54.4% and the GI50 (SK-MEL-2) was 92 nM. It also gave a GI50 (SNB-75) of 290 nM, a GI50 (786-0) of 450 nM and a GI50 (K562) of 10 nM. The GI50 (HT-29) was 410 nM, the GI50 (SW-620) was 520 nM and the GI50 [21] was 480 nM. It also gave a viability at 2 µM (COLO 201 [16]) of 57.1%, a GI50 (SK-MEL-28) of 240 nM and a GI50 (A498) of 220 nM. The GI50 (PC-3) was 790 nM, the GI50 (HL-60(TB)) was 230 nM and the GI50 (SN12C) was 170 nM. It also gave a GI50 (SF-268) of 490 nM, a GI50 (SR) of 180 nM and a GI50 (MOLT-4) of 430 nM. It also gave a GI50 (MCF7) of 8330 nM, a GI50 (BT-549) of 1370 nM and an Activity (COLO 201 [17]) of 1.8%. For the same compound, the GI50 (MDA-MB-231) was 130 nM, the Activity (COLO 201 [18]) was 4.6% and the GI50 (OVCAR-3) was 1090 nM. It also gave a GI50 (NCI-H460) of 430 nM and a GI50 (T47D) of 700 nM.
